Patent publication US20240197897A1, “HETEROTANDEM BICYCLIC PEPTIDE COMPLEXES” (Bicycle Tx Limited, priority 2021, published 2024)
Starred links: 1 amine or outer side, 2 acyl side, 3 side chain; linkers in the order of their positions; H or OH if unused. Positions of bridges follow the written chain, without caps; N, C: chain ends. Non-standard residues stand in square brackets, D forms with d. Residues, ends and D or L forms follow the SMILES beside them. Chains are numbered I, II in the order given. No end group written: not given here. *: point of attachment. TATA = O=C(CC[*:1])N1CN(C(=O)CC[*:2])CN(C(=O)CC[*:3])C1; X2 = O=C(CCOCCOCCOCCOCCOCCn1cc(CCC(=O)[*:2])nn1)[*:1]; Hyp = O=C(O)[C@@H]1C[C@@H](O)CN1; hArg = N=C(N)NCCCC[C@H](N)C(=O)O; Cba = N[C@@H](CC1CCC1)C(=O)O; Pent4ynoyl = C#CCCC(=O)*

Key:
[1] = NK cytotoxicity assay (NK:HT1080-luc co-culture, luciferase readout); type: cell-based, human; details: NK:HT1080-luc co-culture, 24 hours, four-parameter logistic regression; FIGS. 2-4, 6-8, 10; read-out: EC50 NK cytotoxicity (tumor cell killing)
Procedure: (§1) Heterotandem bicyclic peptide complexes were evaluated for NK functional readouts (cytotoxicity and cytokine secretion) in NK-tumor cell line co-cultures.
(§2) NK cells were isolated using a negative isolation kit (STEMCELL™ Technologies 17955) from the total PBMC population purified from whole blood. NK cell pellet was then resuspended in DMEM medium (Corning™ 10-013-CV) with 10% heat-inactivated fetal bovine serum (FBS; Corning® 35-011-CV), 10 mM HEPES (Gibco™ 15-630-080), and 1% Penicillin Streptomycin (Corning™ 30-002-CI), and 50 IU/mL human IL-2 (Miltenyi Biotec® 130-097-748), at a concentration of 4×10^5 cells/mL. For the NK cell cytotoxicity assays, 50 μL (2×10^4) of cell suspension was plated in the 96-well plate (Grenier® Bio One™ 655090) containing 50 μl (4×10^3) HT1080-luc cells (ATCC® CCL-121-luc2) in DMEM (Gibco™ 11875-093; with L-glutamine) with 10% heat-inactivated fetal bovine serum (FBS; Corning® 35-011-CV), 10 mM HEPES (Gibco™ 15-630-080), and 1% Penicillin Streptomycin (Corning™ 30-002-CI). […] The plates were then incubated for 24 hours at 37° C., 5% CO2. Post-incubation, plates was centrifuged at 250×g for 5 minutes and 100 μl supernatant discarded. Samples were then incubated 10 minutes with 50 μl Bright-Glo™ Luciferase Assay system (Promega™ E2620). Luminescence upon excitation at 570 nm was read using a CLARIOstar® plate-reader with MARS Data Analysis Software™. Data was fit to a four-parameter non-linear regression in GraphPad Prism™ 8.0.2 to generate an EC50 value.

HT1080-luc cells = test: as above; type: cell-based, human; details: in comparison to NK:HT1080-luc co-culture without heterotandem complex (NK-TICA)
Procedure: as §1, §2

[2] = system: NK cells co-cultured with the HT1080-luc tumor cell line; test: Cytokine secretion assay (IFN-gamma, TNF-alpha; NK:HT1080-luc co-culture); type: cell-based, human; details: for TNF-alpha and IFN-gamma production from NK cells: 2 nM construct, Luminex, FIG. 11
Procedure: as §1
NK cells were isolated using a negative isolation kit (STEMCELL Technologies® 17955) from the total PBMC population purified from whole blood. NK cell pellet was then resuspended in DMEM medium (Corning™ 10-013-CV) with 10% heat-inactivated fetal bovine serum (FBS; Corning® 35-011-CV), 10 mM HEPES (Gibco™ 15-630-080), and 1% Penicillin Streptomycin (Corning™ 30-002-CI), and 50 IU/mL human IL-2 (Miltenyi Biotec® 130-097-748), at a concentration of 4×10^5 cells/mL. For the NK cell cytokine secretion assay, […] NK cell in 50 μl cell suspension were plated in the 96-well U-bottom plate (Grenier Bio One™ 650180) containing 50 μl (4×10^4) HT1080-luc cells (ATCC® CCL-121-luc2) in DMEM (Gibco™ 11875-093; with L-glutamine) with 10% heat-inactivated fetal bovine serum (FBS; Corning® 35-011-CV), 10 mM HEPES (Gibco™ 15-630-080), and 1% Penicillin Streptomycin (Corning™ 30-002-CI). […] The plates were then incubated for 4 hours at 37° C., 5% CO2. Post-incubation, plates was centrifuged at 250×g for 5 minutes and 100 μl supernatant harvested. Samples were immediately stored at −20° C. or assessed for cytokine levels. Interferon-gamma or TNF-alpha levels were measured in 50 μl of collected supernatants through the Human IFN-gamma Quantikine™ ELISA kit (R&D Systems DIF50C) or Human TNF-alpha Quantikine™ ELISA kit (R&D Systems DTAOOD). Data was acquired at wavelength of 450 nm on CLARIOstar® plate-reader and was fit to a four-parameter non-linear regression in CLARIOstar® plate reader MARS Data Analysis™ software and analyzed with GraphPad Prism™ 8.0.2 software to quantify to cytokine levels. Alternatively, TNF-alpha and IFN-gamma cytokine were measured from 25 μl of collected supernatant by Luminex Assay: Human XL Cytokine Discovery Premixed Kit (R&D Systems, FCS™ 18-05) Luminex 200™ flow instrument and xPONENT™ analysis software.

NKp46 (human) = NKp46 (human) (UniProt O76036); test: cell-based or functional assay
Sequence of NKp46 (human) (O76036 22-304): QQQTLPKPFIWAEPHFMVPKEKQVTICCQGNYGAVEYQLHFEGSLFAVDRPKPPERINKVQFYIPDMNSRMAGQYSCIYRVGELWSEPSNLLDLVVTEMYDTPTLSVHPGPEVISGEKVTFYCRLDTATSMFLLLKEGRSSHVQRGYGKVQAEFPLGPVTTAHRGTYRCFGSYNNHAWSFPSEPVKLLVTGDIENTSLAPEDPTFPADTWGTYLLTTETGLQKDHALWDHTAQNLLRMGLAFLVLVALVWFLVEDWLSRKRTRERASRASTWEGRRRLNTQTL

[3] = target: EPH receptor A2 (ephrin type-A receptor 2) (human) (UniProt P29317); test: cell-based or functional assay
Sequence of EPH receptor A2 (ephrin type-A receptor 2) (human) (P29317 24-976): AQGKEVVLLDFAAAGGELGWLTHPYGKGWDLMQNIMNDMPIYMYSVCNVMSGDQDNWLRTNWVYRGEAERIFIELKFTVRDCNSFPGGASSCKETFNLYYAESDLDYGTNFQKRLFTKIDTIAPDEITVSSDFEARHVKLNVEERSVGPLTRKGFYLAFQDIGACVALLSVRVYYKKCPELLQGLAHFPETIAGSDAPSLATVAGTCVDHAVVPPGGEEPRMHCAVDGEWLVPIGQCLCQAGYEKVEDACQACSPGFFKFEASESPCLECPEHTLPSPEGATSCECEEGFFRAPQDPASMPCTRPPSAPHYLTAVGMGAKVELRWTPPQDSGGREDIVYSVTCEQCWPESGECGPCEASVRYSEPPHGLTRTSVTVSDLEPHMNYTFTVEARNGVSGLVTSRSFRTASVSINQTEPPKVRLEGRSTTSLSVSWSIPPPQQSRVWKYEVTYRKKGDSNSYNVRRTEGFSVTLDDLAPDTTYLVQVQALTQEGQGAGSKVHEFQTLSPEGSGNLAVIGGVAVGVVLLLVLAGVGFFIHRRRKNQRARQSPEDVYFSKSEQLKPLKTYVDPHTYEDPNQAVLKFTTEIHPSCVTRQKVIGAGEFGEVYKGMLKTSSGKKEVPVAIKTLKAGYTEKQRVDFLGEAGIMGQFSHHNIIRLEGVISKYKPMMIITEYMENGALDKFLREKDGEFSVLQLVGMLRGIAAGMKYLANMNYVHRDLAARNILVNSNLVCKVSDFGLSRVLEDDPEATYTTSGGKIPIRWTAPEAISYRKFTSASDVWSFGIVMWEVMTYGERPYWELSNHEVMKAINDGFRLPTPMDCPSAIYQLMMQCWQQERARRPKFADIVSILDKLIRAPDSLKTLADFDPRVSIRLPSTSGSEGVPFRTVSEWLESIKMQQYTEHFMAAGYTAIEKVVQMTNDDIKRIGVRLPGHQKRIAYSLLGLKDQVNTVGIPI

CC(=O)N[C@H]1CSCCC(=O)N2CN3CN(C2)C(=O)CCSC[C@H](NC(=O)[C@H](CC(C)C)NC(=O)[C@H](Cc2ccc(O)cc2)NC(=O)[C@H](CC(=O)O)NC(=O)[C@@H]2CCCN2C(=O)[C@H](CC2CCC2)NC(=O)[C@H](Cc2ccc(O)cc2)NC1=O)C(=O)N[C@H](C)C(=O)N[C@@H](CC(=O)O)C(=O)N[C@@H](CCC(=O)O)C(=O)N[C@@H](Cc1ccc(O)cc1)C(=O)N[C@H](C(=O)N[C@@H](CCCCNC(=O)CCc1cn(CCOCCOCCOCCOCCOCCC(=O)N[C@@H](C)C(=O)N[C@@H](CCCCNC(=N)N)C(=O)N[C@@H](CC(=O)O)C(=O)N[C@H]2CSCCC(=O)N4CN5CN(C4)C(=O)CCSC[C@H](NC(=O)[C@H](CC(C)C)NC(=O)[C@@H]4CCCN4C(=O)[C@H](CC(N)=O)NC(=O)[C@H](C(C)C)NC(=O)[C@H](CC(C)C)NC(=O)[C@@H]4C[C@@H](O)CN4C2=O)C(=O)N[C@@H](CC(C)C)C(=O)N[C@@H](Cc2c[nH]cn2)C(=O)N2CCC[C@H]2C(=O)N[C@H](CC(=O)O)C(=O)N[C@@H](Cc2c[nH]c4ccccc24)C(=O)N[C@@H](CCCCNC(=N)N)C(=O)N[C@H](C(N)=O)CSCCC5=O)nn1)C(N)=O)CSCCC3=O [BCY17225] (I: A[hArg]DC[Hyp]LVNPLCLHP[dD]W[hArg]C-NH2 / II: Ac-CY[Cba]PDYLC[dA]DEYCK-NH2; linker I:4-I:11-I:18, II:1-II:8-II:13 via TATA; linker I:N-II:14 via X2; C-terminus assumed)
EC50 [1]: 3.6 pM | effect on tumor cell killing by NK cells, in words (HT1080-luc cells): enhanced, dose-dependent effect in tumor cell killing | TNF-alpha and IFN-gamma production from NK cells [2]: Cytokine production from NK cells was observed

CC(=O)N[C@H]1CSCCC(=O)N2CN3CN(C2)C(=O)CCSC[C@H](NC(=O)[C@H](CC(C)C)NC(=O)[C@H](Cc2ccc(O)cc2)NC(=O)[C@H](CC(=O)O)NC(=O)[C@@H]2CCCN2C(=O)[C@H](CC2CCC2)NC(=O)[C@H](Cc2ccc(O)cc2)NC1=O)C(=O)N[C@H](C)C(=O)N[C@@H](CC(=O)O)C(=O)N[C@@H](CCC(=O)O)C(=O)N[C@@H](Cc1ccc(O)cc1)C(=O)N[C@H](C(=O)N[C@@H](CCCCNC(=O)CCc1cn(CCOCCOCCOCCOCCNC(=O)CCOCC(COCCC(=O)NCCOCCOCCOCCOCCn2cc(CCC(=O)NCCCC[C@H](NC(=O)[C@@H]4CSCCC(=O)N5CN6CN(C5)C(=O)CCSC[C@H](NC(=O)[C@H](CC(C)C)NC(=O)[C@H](Cc5ccc(O)cc5)NC(=O)[C@H](CC(=O)O)NC(=O)[C@@H]5CCCN5C(=O)[C@H](CC5CCC5)NC(=O)[C@H](Cc5ccc(O)cc5)NC(=O)[C@@H](NC(C)=O)CSCCC6=O)C(=O)N[C@H](C)C(=O)N[C@@H](CC(=O)O)C(=O)N[C@@H](CCC(=O)O)C(=O)N[C@@H](Cc5ccc(O)cc5)C(=O)N4)C(N)=O)nn2)(COCCC(=O)NCCOCCOCCOCCOCCn2cc(CCC(=O)NCCCC[C@H](NC(=O)[C@@H]4CSCCC(=O)N5CN6CN(C5)C(=O)CCSC[C@H](NC(=O)[C@H](CC(C)C)NC(=O)[C@H](Cc5ccc(O)cc5)NC(=O)[C@H](CC(=O)O)NC(=O)[C@@H]5CCCN5C(=O)[C@H](CC5CCC5)NC(=O)[C@H](Cc5ccc(O)cc5)NC(=O)[C@@H](NC(C)=O)CSCCC6=O)C(=O)N[C@H](C)C(=O)N[C@@H](CC(=O)O)C(=O)N[C@@H](CCC(=O)O)C(=O)N[C@@H](Cc5ccc(O)cc5)C(=O)N4)C(N)=O)nn2)NC(=O)CCOCCOCCOCCOCCOCCC(=O)N[C@@H](C)C(=O)N[C@@H](CCCCNC(=N)N)C(=O)N[C@@H](CC(=O)O)C(=O)N[C@H]2CSCCC(=O)N4CN5CN(C4)C(=O)CCSC[C@H](NC(=O)[C@H](CC(C)C)NC(=O)[C@@H]4CCCN4C(=O)[C@H](CC(N)=O)NC(=O)[C@H](C(C)C)NC(=O)[C@H](CC(C)C)NC(=O)[C@@H]4C[C@@H](O)CN4C2=O)C(=O)N[C@@H](CC(C)C)C(=O)N[C@@H](Cc2c[nH]cn2)C(=O)N2CCC[C@H]2C(=O)N[C@H](CC(=O)O)C(=O)N[C@@H](Cc2c[nH]c4ccccc24)C(=O)N[C@@H](CCCCNC(=N)N)C(=O)N[C@H](C(N)=O)CSCCC5=O)nn1)C(N)=O)CSCCC3=O [BCY21686]
EC50 [1]: 1.3 pM | effect on tumor cell killing by NK cells, in words (HT1080-luc cells): enhanced, dose-dependent effect in tumor cell killing | TNF-alpha and IFN-gamma production from NK cells [2]: Cytokine production from NK cells was observed

BCY18048: EphA2 specific peptide BCY9594 linked to two NKp46 specific peptides (BCY17662) via N-(acid-PEG3)-N-bis(PEG3-azide) linker (peptide 1 A[hArg]DC[Hyp]LVNPLCLHP[dD]W[hArg]C; peptide 2 ACYLPDYLC[dK](Pent4ynoyl)DEYCA; linker I:4-I:11-I:18, II:2-II:9-II:14 via TATA; also: chain 1 N-terminus and chain 2 D-Lys(PYA) joined through N-(acid-PEG3)-N-bis(PEG3-azide) linker, two copies of chain 2)
secretion of IFN-gamma and TNF-alpha by NK cells ([2]; 10 nM construct, ELISA, FIG. 12): induced secretion of IFN-gamma and TNF-alpha

BCY21687: EphA2 specific peptide BCY9594 linked to three NKp46 specific peptides (BCY17224) via Methane-N-(PEG10-acid)-Tri(MeOPr-amide-PEG10-azide) linker (peptide 1 A[hArg]DC[Hyp]LVNPLCLHP[dD]W[hArg]C; peptide 2 Ac-CY[Cba]PDYLC[dA]DEYCK(Pent4ynoyl); linker I:4-I:11-I:18, II:1-II:8-II:13 via TATA; also: chain 1 N-terminus and chain 2 K(PYA) joined through Methane-N-(PEG10-acid)-Tri(MeOPr-amide-PEG10-azide) linker, three copies of chain 2)
TNF-alpha and IFN-gamma production from NK cells [2]: Cytokine production from NK cells was observed

B1: heterotandem bicyclic peptide complex BCY21686 (peptide)
peptide 1: A[hArg]DC[Hyp]LVNPLCLHP[dD]W[hArg]C
peptide 2: Ac-CY[Cba]PDYLC[dA]DEYCK(Pent4ynoyl)
modifications: linker I:4-I:11-I:18, II:1-II:8-II:13 via TATA; not fully specified (bridges); also: EphA2:NKp46 1:3, three copies of chain 2 on the linker, linker also given with PEG3-acid, X5, X17: HyP or HArg
EC50, NK cytotoxicity assay (HT1080-luc luminescence) (NKp46 (human)): 1.3 pM

B2: heterotandem bicyclic peptide complex BCY18731 (peptide)
peptide 1: A[hArg]DC[Hyp]LVNPLCLHP[dD]W[hArg]C
peptide 2: Ac-CY[Cba]PDYLC[dA]DEYCK(Pent4ynoyl)
modifications: linker I:4-I:11-I:18, II:1-II:8-II:13 via TATA; not fully specified (bridges); also: joined via azide-PEG24-acid linker (N-terminus of chain 1 to PYA of chain 2, triazole)
EC50, NK cytotoxicity assay (HT1080-luc luminescence) (NKp46 (human)): 18 pM

B3: heterotandem bicyclic peptide complex BCY17226 (peptide)
peptide 1: AXDCXLVNPLCLHPDWXC
peptide 2: CYXPDYLCADEYCK
modifications: BCY17224: N-terminal acetyl; Cba (beta-cyclobutylalanine) and dA (D-Ala) within SEQ ID NO: 5; C-terminal Lys(PYA) joined to the linker azide; Ci, Cii, Ciii cyclised on TATA scaffold; BCY9594: HArg (homoarginine) as 2nd residue of the N-terminal extension; HyP, dD and HArg within SEQ ID NO: 2; Ci, Cii, Ciii cyclised on TATA scaffold; N-terminus joined to the linker
EC50, NK cytotoxicity assay (HT1080-luc luminescence) [3]: 6.1 pM
